Common to all, as to type: biochemical
The target in one test is MSK1 (Homo sapiens, UniProt O75582). Kind of test: MSK1 33P kinase assay. The settings on record: read-out: MSK1 activity as percentage of control without inhibitor. The procedure: (§1) All assays (25.5 μl) were carried out at room temperature (21° C.) and were linear with respect to time and enzyme concentrations under the conditions used. Assays were performed for 30 minutes except assays for LCK and PKB which were performed for 15 minutes using Multidrop Micro reagent dispensers (Thermo Electron Corporation, Waltham, Mass. 02454, USA) in a 96-well format. The concentration of […] [γ-^33P] ATP (800 cpm/pmol) in the assays was one of three concentrations (5, 20 or 50 μM) in order to be at or below Km for ATP for the enzyme. Assays were initiated with MgATP and stopped by addition of 5 μl of 0.5M orthophosphoric acid. Assays were then harvested onto P81 filterplates using a unifilter harvester (PerkinElmer, Boston, Mass. 02118, USA), with a wash buffer of 50 mM orthophosphoric acid. Filterplates were then air dried overnight. 10 μl of Microscint O was added per well prior to counting for radioactivity.
(§2) MKK1, JNK/SAPK1c, SAPK2a/p38, SAPK2b/p38β2, SAPK3/p38γ, SAPK4/p38δ, MAPK2/ERK2, MAPKAP-K1β, MAPKAP-K2, MSK1, PRAK, PKA, PKCα, PDK1, SGK, p70S6K, GSK3β, ROCK-II, PRK2, AMPK, CHK1, CHK2, CK2, PHK, LCK, were assayed according to Davies et al., (Davies, S. P., Reddy, H., Caivano, M. and Cohen, P. Biochem. J. 351, 95-105, 2000.
(§3) CSK and CDK2/cyclinA, were assayed according to Bain et al. (Bain J, McLauchlan H, Elliott M, Cohen P. Biochem J. 371, 199-204, 2003., except that ATP concentrations were either 5, 20 or 50 micromolar so that they were at or below the Km for ATP. The ATP concentrations used were as follows, 5 μM for assays of MKK1, SAPK3, SAPK4, GSK3β, PRK2 CK2 20 μm for assays of JNK, SAPK2β, MAPKAP-K2, MSK1, PRAK, PKA, […], PDK1, SGK, p70S6K, ROCK-II, CHK1, CHK2, CSK, CDK2, and 50 μM for assays of SAPK2a, MAPK2/ERK2, AMPK, LCK, PHK and MAPKAP-K1β.

In another test the target is T1, CHK1 (Homo sapiens, UniProt O14757).
T1 sequence (O14757 1-476): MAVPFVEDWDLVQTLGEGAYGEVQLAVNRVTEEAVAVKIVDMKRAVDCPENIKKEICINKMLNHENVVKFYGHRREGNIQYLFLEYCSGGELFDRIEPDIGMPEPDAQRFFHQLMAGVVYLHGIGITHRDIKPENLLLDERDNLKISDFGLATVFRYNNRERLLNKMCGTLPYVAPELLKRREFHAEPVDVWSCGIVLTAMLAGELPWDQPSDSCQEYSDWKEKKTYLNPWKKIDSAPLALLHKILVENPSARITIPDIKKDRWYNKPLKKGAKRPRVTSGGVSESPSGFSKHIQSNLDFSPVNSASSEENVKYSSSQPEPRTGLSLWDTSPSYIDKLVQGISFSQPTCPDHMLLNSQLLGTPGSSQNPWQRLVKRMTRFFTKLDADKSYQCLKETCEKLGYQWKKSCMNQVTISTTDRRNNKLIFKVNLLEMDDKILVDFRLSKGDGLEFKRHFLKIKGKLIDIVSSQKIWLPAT
In words: CHK1 33P kinase assay. Conditions: read-out: CHK1 activity as percentage of control without inhibitor. The procedure: as §1, §2, §3

For a further test, the system named is PHK. Kind of test: PHK 33P kinase assay. The procedure: as §1, §2, §3
A further test deals with CDK2/cyclin A (Homo sapiens, UniProt P24941). In words: CDK2/cyclin A 33P kinase assay. Conditions: read-out: CDK2/cyclin A activity as percentage of control without inhibitor. As to the method: as §1, §3
The target of another test is DYRK2 (Homo sapiens, UniProt Q92630). In words: DYRK2 33P kinase assay (analogous to DYRK1a). Conditions: ATP at 50 μM; half log dilutions starting at 100 μM. The procedure:
(§4) DYRK1A (5-20 mU of diluted in 50 mM Tris pH 7.5, 0.1 mM EGTA) was assayed against Woodtide ([…]) in a final volume of 25.5 μl containing 50 mM Tris pH 7.5, 0.1 mM EGTA, 350 uM substrate peptide, 10 mM magnesium acetate and 0.5 μl inhibitor and incubated at room temperature for 5 mins, followed by the addition of 0.05 mM [33P-gamma-ATP] (50-1000 cpm/pmole) and incubated for 30 mins at room temperature. Assays were stopped by addition of 5 μl of 0.5 M (3%) orthophosphoric acid then harvested onto P81 Unifilter plates with a wash buffer of 50 mM orthophosphoric acid. Filterplates were then air dried overnight. 10 μl of Microscint O was added per well prior to counting for radioactivity.
DYR2 and DYRK3 were assayed in an analogous manner to that described above for DYRK1a.

In another test the target is CHK2 (Homo sapiens, UniProt O96017). In words: CHK2 33P kinase assay. Conditions: read-out: CHK2 activity as percentage of control without inhibitor. The procedure: as §1, §2, §3
For another test, the target named is DYRK3 (Homo sapiens, UniProt O43781). Kind of test: DYRK3 33P kinase assay (analogous to DYRK1a). The settings on record: ATP at 50 μM; half log dilutions starting at 100 μM. As to the method:
as §4

The target in a further test is T2, DYRK1a (Homo sapiens, UniProt Q13627).
T2 construct: made in house
In words: biochemical. Conditions: for remaining activity at 1 µM / remaining activity at 10 µM: read-out: DYRK1a activity as percentage of control without inhibitor. As to the method:
as §4

For a further test, the target named is p70 S6K (Homo sapiens, UniProt P23443). Kind of test: p70 S6K 33P kinase assay. The settings on record: read-out: p70 S6K activity as percentage of control without inhibitor; for remaining activity at 1 µM: inhibitor 1 μM; for remaining activity at 10 µM: inhibitor 10 μM. As to the method:
as §1, §2, §3

Read-outs that look alike come from different tables or passages of the source.

Chain of MSK1 (O75582 whole entry, species assumed): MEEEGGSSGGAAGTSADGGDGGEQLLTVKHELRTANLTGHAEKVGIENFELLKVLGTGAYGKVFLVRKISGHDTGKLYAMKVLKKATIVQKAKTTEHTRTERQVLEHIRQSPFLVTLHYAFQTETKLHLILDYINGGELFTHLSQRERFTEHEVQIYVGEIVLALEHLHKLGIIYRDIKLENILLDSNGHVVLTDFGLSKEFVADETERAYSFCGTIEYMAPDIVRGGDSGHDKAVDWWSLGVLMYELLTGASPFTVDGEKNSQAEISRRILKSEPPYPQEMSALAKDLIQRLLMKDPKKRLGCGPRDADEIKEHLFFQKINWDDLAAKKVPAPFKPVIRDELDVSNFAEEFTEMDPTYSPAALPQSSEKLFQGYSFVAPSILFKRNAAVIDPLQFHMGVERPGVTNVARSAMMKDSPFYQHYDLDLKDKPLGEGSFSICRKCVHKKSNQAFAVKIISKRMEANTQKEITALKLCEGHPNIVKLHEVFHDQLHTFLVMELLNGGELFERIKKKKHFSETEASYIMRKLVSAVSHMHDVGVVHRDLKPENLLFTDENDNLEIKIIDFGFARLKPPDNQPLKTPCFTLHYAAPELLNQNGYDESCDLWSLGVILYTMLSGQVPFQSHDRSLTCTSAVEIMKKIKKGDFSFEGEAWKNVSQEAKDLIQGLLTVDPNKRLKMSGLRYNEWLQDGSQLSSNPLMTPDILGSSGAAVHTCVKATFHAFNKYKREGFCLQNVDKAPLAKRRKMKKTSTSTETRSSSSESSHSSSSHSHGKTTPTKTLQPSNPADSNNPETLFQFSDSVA
Chain of CHK2 (O96017 whole entry, species assumed): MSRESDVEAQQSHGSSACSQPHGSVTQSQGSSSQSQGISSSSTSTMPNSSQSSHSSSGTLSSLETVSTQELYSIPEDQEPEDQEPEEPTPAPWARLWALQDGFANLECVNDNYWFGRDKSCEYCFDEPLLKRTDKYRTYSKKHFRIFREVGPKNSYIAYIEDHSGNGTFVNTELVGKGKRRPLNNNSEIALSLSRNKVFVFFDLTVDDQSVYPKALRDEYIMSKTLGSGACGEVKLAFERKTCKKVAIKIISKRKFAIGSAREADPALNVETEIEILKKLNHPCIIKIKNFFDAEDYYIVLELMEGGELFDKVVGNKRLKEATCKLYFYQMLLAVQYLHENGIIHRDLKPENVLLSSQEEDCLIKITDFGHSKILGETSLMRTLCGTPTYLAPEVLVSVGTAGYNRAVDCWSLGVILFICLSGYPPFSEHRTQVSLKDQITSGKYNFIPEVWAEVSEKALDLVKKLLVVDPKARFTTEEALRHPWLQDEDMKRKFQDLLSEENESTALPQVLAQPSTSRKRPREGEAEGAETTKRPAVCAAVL
Chain of p70 S6K (P23443 whole entry): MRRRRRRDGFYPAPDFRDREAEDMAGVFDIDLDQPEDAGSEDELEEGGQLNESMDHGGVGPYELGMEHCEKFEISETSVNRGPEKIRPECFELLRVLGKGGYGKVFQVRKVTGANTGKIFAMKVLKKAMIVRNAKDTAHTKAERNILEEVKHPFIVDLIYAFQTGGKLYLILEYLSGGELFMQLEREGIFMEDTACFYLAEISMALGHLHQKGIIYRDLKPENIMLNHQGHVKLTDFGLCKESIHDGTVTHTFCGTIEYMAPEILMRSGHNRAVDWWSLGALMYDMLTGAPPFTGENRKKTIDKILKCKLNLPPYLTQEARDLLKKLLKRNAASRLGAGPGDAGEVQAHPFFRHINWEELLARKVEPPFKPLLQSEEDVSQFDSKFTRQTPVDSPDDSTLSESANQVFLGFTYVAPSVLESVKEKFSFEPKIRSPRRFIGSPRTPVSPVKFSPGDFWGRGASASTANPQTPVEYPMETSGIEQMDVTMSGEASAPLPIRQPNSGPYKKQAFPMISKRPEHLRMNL
Chain of DYRK3 (O43781 whole entry, species assumed): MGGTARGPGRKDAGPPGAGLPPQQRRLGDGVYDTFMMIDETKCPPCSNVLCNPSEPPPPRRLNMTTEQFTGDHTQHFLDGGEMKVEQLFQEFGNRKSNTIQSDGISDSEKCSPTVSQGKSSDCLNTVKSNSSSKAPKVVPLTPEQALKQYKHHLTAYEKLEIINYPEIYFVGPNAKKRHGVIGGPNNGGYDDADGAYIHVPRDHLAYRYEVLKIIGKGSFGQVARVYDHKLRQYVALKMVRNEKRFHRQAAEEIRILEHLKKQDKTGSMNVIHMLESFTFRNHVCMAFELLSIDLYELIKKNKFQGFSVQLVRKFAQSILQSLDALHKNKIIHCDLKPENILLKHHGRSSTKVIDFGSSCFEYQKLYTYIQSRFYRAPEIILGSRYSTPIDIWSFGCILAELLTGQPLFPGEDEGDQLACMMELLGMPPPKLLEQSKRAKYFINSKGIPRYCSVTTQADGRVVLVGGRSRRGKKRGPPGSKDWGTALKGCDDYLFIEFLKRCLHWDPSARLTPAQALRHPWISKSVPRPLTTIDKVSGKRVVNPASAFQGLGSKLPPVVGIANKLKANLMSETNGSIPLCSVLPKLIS
Chain of DYRK2 (Q92630 whole entry, species assumed): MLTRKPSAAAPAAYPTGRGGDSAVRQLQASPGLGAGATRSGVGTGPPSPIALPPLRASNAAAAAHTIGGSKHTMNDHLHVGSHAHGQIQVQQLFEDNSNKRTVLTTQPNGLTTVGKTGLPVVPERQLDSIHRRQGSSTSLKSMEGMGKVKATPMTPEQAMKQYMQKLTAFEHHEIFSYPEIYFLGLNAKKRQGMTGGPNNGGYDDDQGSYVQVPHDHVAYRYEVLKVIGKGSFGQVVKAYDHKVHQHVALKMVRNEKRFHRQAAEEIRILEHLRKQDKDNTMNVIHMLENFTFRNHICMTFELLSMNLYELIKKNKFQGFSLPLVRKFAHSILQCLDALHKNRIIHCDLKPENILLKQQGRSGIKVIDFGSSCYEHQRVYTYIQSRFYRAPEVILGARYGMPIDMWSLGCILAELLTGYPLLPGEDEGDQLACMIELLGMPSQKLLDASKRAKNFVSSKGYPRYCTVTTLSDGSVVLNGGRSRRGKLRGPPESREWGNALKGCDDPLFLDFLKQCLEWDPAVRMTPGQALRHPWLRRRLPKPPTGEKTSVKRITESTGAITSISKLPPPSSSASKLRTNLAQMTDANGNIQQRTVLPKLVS

For orientation: IC50 means the concentration that gives 50% inhibition. Lower therefore signals greater potency in that assay. For `COc1ccc2c(c1)[nH]c1c(C)nccc12` [Harmine], the remaining activity at 1 µM is 90% at MSK1; 86% at CHK1; 98% on CDK2/cyclin A; 78% at CHK2; 4% at DYRK1a; 90% on p70 S6K. For the same compound, the remaining activity at 10 µM on MSK1 was 88%; on CHK1, 86%; at CDK2/cyclin A it was 62%; at CHK2, 79%; at DYRK1a it was 1%; at p70 S6K, 93%. Further, the results for the “PHK activity as percentage of control without inhibitor” value in the test with PHK (inhibitor 1 μM) and in the test with PHK (inhibitor 10 μM) were 103% and 82%, respectively. For the same compound, the figures for the IC50 on DYRK2 and against DYRK3 were 900 nM and 800 nM, respectively. The “inhibition of DYRK1a, result in words” value against DYRK1a is “very potent and specific inhibitor of DYRK1a”.

For `CC1=NCCc2c1[nH]c1cc(O)ccc21` [Harmalol], the remaining activity at 1 µM at MSK1 (inhibitor 1 μM) worked out at 84%; at CHK1 (inhibitor 1 μM), 93%; at CDK2/cyclin A (inhibitor 1 μM), 97%; on CHK2 (inhibitor 1 μM) it was 76%; on DYRK1a (inhibitor 1 μM), 25%; on p70 S6K, 95%. The remaining activity at 10 µM at MSK1 (inhibitor 10 μM) was determined as 59%; at CHK1 (inhibitor 10 μM), 81%; on CDK2/cyclin A (inhibitor 10 μM), 77%; at CHK2 (inhibitor 10 μM), 57%; on DYRK1a (inhibitor 10 μM), 3%; at p70 S6K it was 69%. Further, the “PHK activity as percentage of control without inhibitor” value with PHK (inhibitor 1 μM) is listed as 101%; with PHK (inhibitor 10 μM), 63%.

Take `COc1ccc2c3c([nH]c2c1)C(C)=NCC3` [Harmaline]: the remaining activity at 1 µM worked out at 98% on MSK1 (inhibitor 1 μM); 78% at CHK1; 99% at CDK2/cyclin A; 89% on CHK2 (inhibitor 1 μM); 78% on DYRK1a (inhibitor 1 μM); 71% at p70 S6K. Further, the remaining activity at 10 µM at MSK1 (inhibitor 10 μM) is 111%; on CHK1 it was 67%; at CDK2/cyclin A, 98%; at CHK2 (inhibitor 10 μM) it was 89%; at DYRK1a (inhibitor 10 μM) it was 8%; at p70 S6K, 83%. Also, the “PHK activity as percentage of control without inhibitor” value in the test on PHK (inhibitor 1 μM) is 73%; in the test with PHK (inhibitor 10 μM) it was 88%.

The values are drawn from patent US20100063085A1, “METHOD OF TREATING LEARNING IMPAIRMENT IN DOWN'S SYNDROME SUBJECTS” (University Court of The University of Dundee, priority 2008, published 2010).
